Measured values published in patent publication US20260115183A1, “METHOD AND COMPOSITION FOR PROTECTING OR IMPROVING OVARIAN FUNCTION IN MAMMALS” (NANJING NUTRABUILDING BIO-TECH CO., LTD., priority 2023, published 2026).

Columns and labels:
Female Wistar rats [1] = assay: Serum hormone determination (T, E2, LH, FSH) by ELISA in rats injected with testosterone propionate; format: in vivo; settings: after 8 weeks of gavage intervention
Protocol: Female Wistar rats weighing 220-230 g were selected, and all rats were free to eat. One week later, without any intervention, they were randomly divided into control group CK (n=10; Placebo); Model group MD (n=10; Placebo); Experimental group A (n=10; Ergothioneine 2.25 mg/kg/d); Experimental group B (n=10; Ergothioneine 2.25 mg/kg/d+Pyrroloquinoline quinone 1.8 mg/kg/d); Experimental group C (n=10; Ergothioneine 2.25 mg/kg/d+Pyrroloquinoline quinone 1.8 mg/kg/d+Oenothera biennis 18 mg/kg/d+inositol 9 mg/kg/d). Four groups of rats were injected with testosterone propionate (10 mg/kg, once a day for 6 weeks) and olive oil continuously. Administration was performed by gavage. Gavage intervention in each group lasted for 8 weeks. Finally, the rats were anesthetized with 1% pentobarbital sodium, and the rats were killed when they were estrus after fasting for 16 h. Blood was collected through abdominal aorta, and the serum was taken after centrifugation at 4° C. for 15 min at a speed of 1000 g. Hormone determination: Serum total testosterone T, luteinizing hormone LH, follicle stimulating hormone FSH and estradiol E2 were determined by ELISA. […] Graphpad 8.0 software was used to analyze the data, and the result data was expressed as standard deviation (x±s), and the significance was analyzed by one-way ANOVA test.

Female Wistar rats [2] = assay: OGTT blood glucose by glucose oxidase method in rats injected with testosterone propionate; format: in vivo; settings: different time points within 120 min, last week of gavage
Protocol: (§1) Female Wistar rats weighing 220-230 g were selected, and all rats were free to eat. One week later, without any intervention, they were randomly divided into control group CK (n=10; Placebo); Model group MD (n=10; Placebo); Experimental group A (n=10; Ergothioneine 2.25 mg/kg/d); Experimental group B (n=10; Ergothioneine 2.25 mg/kg/d+Pyrroloquinoline quinone 1.8 mg/kg/d); Experimental group C (n=10; Ergothioneine 2.25 mg/kg/d+Pyrroloquinoline quinone 1.8 mg/kg/d+Oenothera biennis 18 mg/kg/d+inositol 9 mg/kg/d). Four groups of rats were injected with testosterone propionate (10 mg/kg, once a day for 6 weeks) and olive oil continuously. Administration was performed by gavage.
(§2) OGTT, insulin, HOMA-IR and blood lipid were measured in each group at the last week of gavage. After fasting for 16 h, fasting blood glucose (0 min) was measured. Subsequently, rats were intraperitoneally injected with 50% glucose solution (2 g/kg). At each time point (0 min, 30 min, 60 min, 120 min), the blood glucose of rats was measured by glucose oxidase method. […] Serum total cholesterol (TC) and total triglyceride (TG) were detected by total cholesterol detection kit and triglyceride detection kit.
(§3) Graphpad 8.0 software was used to analyze the data, and the result data was expressed as standard deviation (x±s), and the significance was analyzed by one-way ANOVA test.

Female Wistar rats [3] = assay: HOMA-IR index from fasting insulin and fasting blood glucose; format: in vivo; settings: calculated from fasting blood glucose and fasting insulin; Model group 12.5
Protocol: as §1, §2, §3

Female Wistar rats [4] = assay: Serum total cholesterol (TC) and total triglyceride (TG) detection; settings: rat, in vivo
Protocol: Female Wistar rats weighing 220-230 g were selected, and all rats were free to eat. One week later, without any intervention, they were randomly divided into control group CK (n=10; Placebo); Model group MD (n=10; Placebo); Experimental group A (n=10; Ergothioneine 2.25 mg/kg/d); Experimental group B (n=10; Ergothioneine 2.25 mg/kg/d+Pyrroloquinoline quinone 1.8 mg/kg/d); Experimental group C (n=10; Ergothioneine 2.25 mg/kg/d+Pyrroloquinoline quinone 1.8 mg/kg/d+Oenothera biennis 18 mg/kg/d+inositol 9 mg/kg/d). Four groups of rats were injected with testosterone propionate (10 mg/kg, once a day for 6 weeks) and olive oil continuously. Administration was performed by gavage. Gavage intervention in each group lasted for 8 weeks. […] OGTT, insulin, HOMA-IR and blood lipid were measured in each group at the last week of gavage. After fasting for 16 h, fasting blood glucose (0 min) was measured. […] At each time point (0 min, 30 min, 60 min, 120 min), the blood glucose of rats was measured by glucose oxidase method. […] Serum total cholesterol (TC) and total triglyceride (TG) were detected by total cholesterol detection kit and triglyceride detection kit. Graphpad 8.0 software was used to analyze the data, and the result data was expressed as standard deviation (x±s), and the significance was analyzed by one-way ANOVA test.

With `C[N+](C)(C)[C@@H](Cc1c[nH]c(=S)[nH]1)C(=O)[O-]` [Experimental group A, Ergothioneine] the “serum E2 compared with the Model group” value (Female Wistar rats [1]) was “decreased significantly”, the “serum T compared with the Model group” value (Female Wistar rats [1]) was “decreased significantly” and the “blood glucose levels compared with the Model group” value (Female Wistar rats [2]) was “decreased significantly”. For the same molecule, the HMOA-IR index (Female Wistar rats [3]) was 11.3, the “content of TC in serum compared with the Model group” value (Female Wistar rats [4]) was “significantly reduce” and the “content of TG in serum compared with the Model group” value (Female Wistar rats [4]) was “significantly reduce”.
